According to patent US4283381A, “Triiodinated aminoacetamido isophthalamide x-ray contrast agents” (Schering Aktiengesellschaft, priority 1979, dated 1981):

What was measured:
Iodine content of salt = assay type: physicochemical
[1] = Viscosity of solution with 300 mg iodine/ml, 37° C.; assay type: physicochemical
Rat (100 g) = experiment: LD50 rat, intravenous injection; assay type: in vivo; details: solution 300 mg iodine/ml, injection rate 2 ml/min
Description: (§1) LD50 on mice and rats was determined after intravenous injection of
(§2) the solutions containing 300 mg iodine/ml with an injection rate of 2

[2] = Molarity (and thus osmotic pressure) of solution with 300 mg iodine; assay type: physicochemical; details: 300 mg iodine/ml
Mouse (20 g) = experiment: LD50 mouse, intravenous injection; assay type: in vivo; details: solution 300 mg iodine/ml, injection rate 2 ml/min
Description: as §1, §2

Structure (SMILES) | Iodine content of salt (Iodine content of salt) | Viscosity of solution with 300 mg iodine/ml, 37° C. in centipoises [1] | LD50 Rat (100 g) g iodine/kg (Rat (100 g)) | Molarity of solution with 300 mg iodine [2] | LD50 Mouse (20 g) g iodine/kg (Mouse (20 g))
CN(CC(O)CO)C(=O)c1c(I)c(NC(=O)CN)c(I)c(C(=O)N(C)CC(O)CO)c1I (centres unmarked) [B-Amidotrizoate, 5-amidoacetamido-2,4,6-isophthalic acid bis(N-methyl-2,3-dihydroxypropyl) diamide amidotrizoate] | 54% | 3.5 centipoises | ≥ 10 g iodine/kg | 0.394 mol/L | –
CNC(=O)c1c(I)c(NC(C)=O)c(I)c(C(=O)O)c1I [Megl. Iothalamate] | 47% | 5.2 centipoises | 7.4 g iodine/kg | 0.787 mol/L | 4.5 g iodine/kg
NCC(=O)Nc1c(I)c(C(=O)NCCO)c(I)c(C(=O)NCCO)c1I [A-Iothalamate, 5-aminoacetamido-2,4,6-triiodoisophthalic acid bis(2-hydroxyethyl)amide iothalamate] | 58% | 2.4 centipoises | ≥ 10 g iodine/kg | 0.394 mol/L | ≥ 10.5 g iodine/kg
CC(=O)Nc1c(I)c(NC(C)=O)c(I)c(C(=O)O)c1I [Megl. Amidotrizoate] | 47% | 5.0 centipoises | 7.5 g iodine/kg | 0.787 mol/L | –
CNC(=O)c1c(I)c(NC(C)=O)c(I)c(C(=O)O)c1I [Na-Iothalamate] | 60% | 2.7 centipoises | 7.0 g iodine/kg | 0.787 mol/L | 8.0 g iodine/kg
